The structures appear in SMILES notation. pKi: −log10 of the molar value.

This is an account of results in patent publication US20240150293A1, “SPIROCYCLOHEXANE DERIVATIVES, PHARMACEUTICAL COMPOSITIONS CONTAINING THEM AND THEIR USES AS ANTI-APOPTOTIC INHIBITORS” (LES LABORATOIRES SERVIER, priority 2021, published 2024).

Sequence of Mcl-1 protein (Q07820 whole entry): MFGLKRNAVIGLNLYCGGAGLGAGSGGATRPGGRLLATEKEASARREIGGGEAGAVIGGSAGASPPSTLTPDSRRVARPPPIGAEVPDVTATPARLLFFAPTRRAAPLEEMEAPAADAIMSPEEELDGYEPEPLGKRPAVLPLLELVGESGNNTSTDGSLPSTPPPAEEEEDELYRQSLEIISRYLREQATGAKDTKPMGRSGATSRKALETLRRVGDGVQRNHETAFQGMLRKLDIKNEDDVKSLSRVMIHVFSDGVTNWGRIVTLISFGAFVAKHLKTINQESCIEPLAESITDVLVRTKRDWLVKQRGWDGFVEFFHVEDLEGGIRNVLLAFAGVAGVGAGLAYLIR

The test has as its target Mcl-1 protein (UniProtKB Q07820) (Homo sapiens (Human), UniProt Q07820). As to the kind of experiment: Inhibition of Mcl-1 by the fluorescence polarisation assay (Example A, Method A). In kind it is binding. The conditions noted are these: fluorescence polarization assay. Put shortly:
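Protein (5 nM) and fluorescein-tagged peptide tracer (1 nM) incubated with 11-point compound series for 2 h at room temperature in HEPES/NaCl/Tween 20 buffer, pH 7.4, 5% DMSO. Displacement read as decrease in polarisation; IC50 fitted by 4-parameter logistic, converted to Ki (cKi or eKi).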
One may read the pKi as the negative decadic logarithm of the Ki, by convention in mol/L. Turning to `O=C(O)[C@]1(Nc2cccc(Cl)c2)CC[C@]2(CC1)C(C1CN(CC(F)(F)F)C1)=Cc1ccccc12` [Example 102, (1r,4r)-4-(3-chloroanilino)-2′-[1-(2,2,2-trifluoroethyl)azetidin-3-yl]spiro[cyclohexane-1,1′-indene]-4-carboxylic acid], the pKi is 4.97.

For `O=C(O)C1(Nc2cccc(Br)c2)CCC2(CC1)c1ccccc1CC2CCc1ccccc1` (racemic) [Example 201, 4-(3-bromoanilino)-2′-(2-phenylethyl)-2′,3′-dihydrospiro[cyclohexane-1,1′-indene]-4-carboxylic acid], the pKi is 5.82.

Consider `COCCOc1ccc2c(c1)[C@]1(CC2)CC[C@](Nc2cccc(Br)c2)(C(=O)O)CC1` [Example 67, (1r,4s)-4-(3-bromoanilino)-6′-(2-methoxyethoxy)-2′,3′-dihydrospiro[cyclohexane-1,1′-indene]-4-carboxylic acid], for which the pKi was 7.00.

`O=C(O)[C@]1(Nc2cccc(Cl)c2)CC[C@@]2(CC1)c1ccccc1CC2CCCN1CCOCC1` (stereo partly drawn) [Example 196, (1r,4r)-4-(3-chloroanilino)-2′-[3-(morpholin-4-yl)propyl]-2′,3′-dihydrospiro[cyclohexane-1,1′-indene]-4-carboxylic acid]: the pKi is 5.02.

As to `COc1cccc(Cl)c1C1=Cc2ccccc2[C@]12CC[C@@](Nc1cccc(Cl)c1)(C(=O)O)CC2` [Example 250, (1s,4s)-4-(3-chloroanilino)-2′-(2-chloro-6-methoxyphenyl)spiro[cyclohexane-1,1′-indene]-4-carboxylic acid], the pKi is 4.86.

Regarding `O=C(O)[C@]1(Nc2cccc(Cl)c2)CC[C@]2(CC1)C(Br)=Cc1ccc(Cl)cc12` [Example 134, (1s,4s)-2′-bromo-6′-chloro-4-(3-chloroanilino)spiro[cyclohexane-1,1′-indene]-4-carboxylic acid], the pKi was 6.58.

Regarding `COc1ccc(C2Cc3ccccc3[C@]23CC[C@@](Nc2cccc(Cl)c2)(C(=O)O)CC3)c(Cl)c1` (single isomer, unassigned) [Example 269, (1r,4r)-4-(3-chloroanilino)-2′-(2-chloro-4-methoxyphenyl)-2′,3′-dihydrospiro[cyclohexane-1,1′-indene]-4-carboxylic acid], the negative logarithm of the Ki (pKi) was 4.95.

On to `COc1ccc(Cl)c(C2=Cc3ccccc3[C@]23CC[C@@](Nc2cccc(Cl)c2)(C(=O)O)CC3)c1` [Example 246, (1s,4s)-4-(3-chloroanilino)-2′-(2-chloro-5-methoxyphenyl)spiro[cyclohexane-1,1′-indene]-4-carboxylic acid], for which the pKi was 5.38.

As for `COc1cccc(C2=Cc3ccccc3[C@]23CC[C@@](Nc2cccc(Cl)c2)(C(=O)O)CC3)c1Cl` [Example 267, (1s,4s)-4-(3-chloroanilino)-2′-(2-chloro-3-methoxyphenyl)spiro[cyclohexane-1,1′-indene]-4-carboxylic acid], the pKi was 6.59.

On to `COc1ccc(C2=Cc3ccccc3[C@]23CC[C@@](Nc2cccc(Cl)c2)(C(=O)O)CC3)cc1` [Example 230, (1s,4s)-4-(3-chloroanilino)-2′-(4-methoxyphenyl)spiro[cyclohexane-1,1′-indene]-4-carboxylic acid], for which the pKi was 5.97.

For `O=C(O)C1(Nc2cccc(Br)c2)CCC2(CC1)c1ccccc1CC2c1cccc(Cl)c1` (stereo not drawn) [Example 221, 4-(3-bromoanilino)-2′-(3-chlorophenyl)-2′,3′-dihydrospiro[cyclohexane-1,1′-indene]-4-carboxylic acid], the pKi is 6.00.

`O=C(O)[C@]1(Nc2cccc(Br)c2)CC[C@]2(CC1)C(I)=Cc1ccccc12` [Example 77, (1s,4s)-4-(3-bromoanilino)-2′-iodospiro[cyclohexane-1,1′-indene]-4-carboxylic acid]: the pKi is 6.64.

As to `CCCC1Cc2ccccc2[C@]12CC[C@@](Nc1cccc(Br)c1)(C(=O)O)CC2` (stereo partly drawn) [Example 148, (1r,4r)-4-(3-bromoanilino)-2′-propyl-2′,3′-dihydrospiro[cyclohexane-1,1′-indene]-4-carboxylic acid], the pKi is 6.59.

Consider `COc1ccc(C2Cc3ccccc3[C@]23CC[C@@](Nc2cccc(Cl)c2)(C(=O)O)CC3)c(C)c1` (single isomer, unassigned) [Example 255, (1r,4r)-4-(3-chloroanilino)-2′-(4-methoxy-2-methylphenyl)-2′,3′-dihydrospiro[cyclohexane-1,1′-indene]-4-carboxylic acid], for which the pKi was 4.94.

On to `O=C(O)[C@]1(Nc2cccc(Br)c2)CC[C@@]2(CC1)C(CCCc1ccccc1)=Cc1ccccc12` [Example 149, (1s,4s)-4-(3-bromoanilino)-2′-(3-phenylpropyl)spiro[cyclohexane-1,1′-indene]-4-carboxylic acid], for which the pKi was 4.20.

As for `O=C(O)[C@]1(Nc2cccc(Cl)c2)CC[C@@]2(CC1)c1ccccc1CC2CCCOc1ccccc1C(F)(F)F` (stereo partly drawn) [Example 443, (1r,4r)-4-(3-chloroanilino)-2′-{3-[2-(trifluoromethyl)phenoxy]propyl}-2′,3′-dihydrospiro[cyclohexane-1,1′-indene]-4-carboxylic acid], the pKi is 6.97.

For the molecule `O=C(O)C1(Nc2cccc(Br)c2)CCC2(C=Cc3ccccc32)CC1` (single isomer, unassigned) [Example 58, 4-(3-bromoanilino)spiro[cyclohexane-1,1′-indene]-4-carboxylic acid], the pKi is 6.16.

On to `O=C(O)[C@]1(Nc2cccc(Cl)c2)CC[C@@]2(CC1)c1ccccc1CC2c1coc2ccccc12` (single isomer, unassigned) [Example 285, (1r,4r)-2′-(1-benzofuran-3-yl)-4-(3-chloroanilino)-2′,3′-dihydrospiro[cyclohexane-1,1′-indene]-4-carboxylic acid], for which the pKi is 5.30.

`Cc1ccc(C2Cc3ccccc3C23CCC(Nc2cccc(Br)c2)(C(=O)O)CC3)o1` (stereo not drawn) [Example 239, 4-(3-bromoanilino)-2′-(5-methylfuran-2-yl)-2′,3′-dihydrospiro[cyclohexane-1,1′-indene]-4-carboxylic acid]: the pKi is 6.52.

Regarding `CC1CCc2nccc(OCCCC3Cc4ccccc4[C@]34CC[C@@](Nc3ccccc3)(C(=O)O)CC4)c21` (stereo partly drawn) [Example 477, (1r,4r)-4-anilino-2′-{3-[(5-methyl-6,7-dihydro-5H-cyclopenta[b]pyridin-4-yl)oxy]propyl}-2′,3′-dihydrospiro[cyclohexane-1,1′-indene]-4-carboxylic acid], the pKi was 6.63.

With `O=C(O)[C@]1(Nc2cccc(Cl)c2)CC[C@]2(CC1)C(COCCc1cccc(F)c1)=Cc1ccccc12` [Example 412, (1s,4s)-4-(3-chloroanilino)-2′-{[2-(3-fluorophenyl)ethoxy]methyl}spiro[cyclohexane-1,1′-indene]-4-carboxylic acid], the pKi is 6.33.

On to `O=C(O)[C@]1(Nc2cccc(Cl)c2)CC[C@@]2(CC1)c1ccccc1CC2[C@H]1C[C@@H]1COc1ccnc2ccsc12` (single isomer, unassigned) [Example 105, (1r,4r)-4-(3-chloroanilino)-2′-[(1R*,2S*)-2-{[(thieno[3,2-b]pyridin-7-yl)oxy]methyl}cyclopropyl]-2′,3′-dihydrospiro[cyclohexane-1,1′-indene]-4-carboxylic acid], for which the pKi was 5.43.

Take `COc1cncnc1OCCCC1Cc2ccccc2[C@]12CC[C@@](Nc1cccc(Cl)c1)(C(=O)O)CC2` (stereo partly drawn) [Example 438, (1r,4r)-4-(3-chloroanilino)-2′-{3-[(5-methoxypyrimidin-4-yl)oxy]propyl}-2′,3′-dihydrospiro[cyclohexane-1,1′-indene]-4-carboxylic acid]: the pKi was 6.69.

With `Cc1cc(OCCCC2Cc3ccccc3C23CCC(Nc2cccc(Cl)c2)(C(=O)O)CC3)cc(C)c1Cl` (stereo not drawn) [Example 436, (1r,4r)-4-(3-chloroanilino)-2′-[3-(4-chloro-3,5-dimethylphenoxy)propyl]-2′,3′-dihydrospiro[cyclohexane-1,1′-indene]-4-carboxylic acid], the negative-log Ki (pKi) is 6.04.

Turning to `CCN1c2ccccc2[C@]2(CC[C@](Nc3cccc(Br)c3)(C(=O)O)CC2)C1=O` [Example 2, (1r,4r)-4-(3-bromoanilino)-1′-ethyl-2′-oxo-1′,2′-dihydrospiro[cyclohexane-1,3′-indole]-4-carboxylic acid], the pKi is 5.12.

Turning to `C[C@@H](COc1ccnc(N)c1)C[C@H]1Cc2ccccc2[C@]12CC[C@@](Nc1cccc(Cl)c1)(C(=O)O)CC2` [Example 583, (1r,2′S,4S)-2′-{(2R)-3-[(2-aminopyridin-4-yl)oxy]-2-methylpropyl}-4-(3-chloroanilino)-2′,3′-dihydrospiro[cclohexane-1,1′-indene]-4-carboxylic acid], the negative-log Ki (pKi) is 6.72.

Turning to `O=C(O)[C@]1(Nc2cccc(Cl)c2)CC[C@@]2(CC1)c1ccccc1C[C@H]2C1CCC1` [Example 100, (1r,2′S,4S)-4-(3-chloroanilino)-2′-cyclobutyl-2′,3′-dihydrospiro[cyclohexane-1,1′-indene]-4-carboxylic acid], the pKi was 5.58.

Turning to `COc1ccc(C2=Cc3ccccc3[C@]23CC[C@](Nc2cccc(Cl)c2)(C(=O)O)CC3)cc1Cl` [Example 226, (1r,4r)-4-(3-chloroanilino)-2′-(3-chloro-4-methoxyphenyl)spiro[cyclohexane-1,1′-indene]-4-carboxylic acid], the negative logarithm of the Ki (pKi) is 4.63.

For the molecule `COc1cccc(CCOCC2=Cc3ccccc3[C@]23CC[C@@](Nc2cccc(Cl)c2)(C(=O)O)CC3)c1` [Example 418, (1s,4s)-4-(3-chloroanilino)-2′-{[2-(3-methoxyphenyl)ethoxy]methyl}spiro[cyclohexane-1,1′-indene]-4-carboxylic acid], the pKi is 6.19.

With `O=C(O)[C@]1(Nc2cccc(Cl)c2)CC[C@]2(CC1)C(c1ccc3occc3c1)=Cc1ccccc12` [Example 247, (1s,4s)-2′-(1-benzofuran-5-yl)-4-(3-chloroanilino)spiro[cyclohexane-1,1′-indene]-4-carboxylic acid], the pKi was 5.91.
